Several values for one entry are separate records, joined by “and”; a condition that tells them apart may be missing. Identical values can stand only once. Inconclusive results and toxic doses are left out. Rule for the calls: active = survival T/C of 150% or more; inactive = T/C below 125% in these data. Peptide text beside a SMILES is read from it.
Test system: P388 leukemia ip, CD2F1 mice, survival T/C
Experiment: NCI In Vivo Anticancer Drug Screen. Data for tumor model P388 Leukemia (intraperitoneal) in CD2F1 (CDF1) mice
Conditions: endpoint: median survival time, higher = longer survival
Summary of the method: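 Mice carrying the transplanted tumor received test compound or vehicle. Survival was recorded in each group, and the value is the treated-group measurement divided by that of the vehicle-treated control group.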

[1] = dose: 6.25 mg/kg/injection, schedule: Q01DX009 (ip), vehicle: saline
[2] = dose: 12.5 mg/kg/injection, schedule: Q01DX009 (ip), vehicle: saline
[3] = dose: 25.0 mg/kg/injection, schedule: Q01DX009 (ip), vehicle: saline
[4] = dose: 50.0 mg/kg/injection, schedule: Q01DX009 (ip), vehicle: saline
[5] = dose: 50.0 mg/kg/injection, schedule: Q01DX009 (ip), vehicle: saline with Tween-80
[6] = dose: 50.0 mg/kg/injection, schedule: Q01DX005 (ip), vehicle: Klucel (hydroxypropylcellulose) (HPC)
[7] = dose: 100.0 mg/kg/injection, schedule: Q01DX005 (ip), vehicle: Klucel (hydroxypropylcellulose) (HPC)
[8] = dose: 200.0 mg/kg/injection, schedule: Q01DX005 (ip), vehicle: Klucel (hydroxypropylcellulose) (HPC)
[9] = dose: 25.0 mg/kg/injection, schedule: Q01DX005 (ip), vehicle: saline
[10] = dose: 12.5 mg/kg/injection, schedule: Q01DX009 (ip), vehicle: Klucel (hydroxypropylcellulose) (HPC)
[11] = dose: 25.0 mg/kg/injection, schedule: Q01DX009 (ip), vehicle: Klucel (hydroxypropylcellulose) (HPC)
[12] = dose: 50.0 mg/kg/injection, schedule: Q01DX005 (ip), vehicle: saline with Tween-80
[13] = dose: 100.0 mg/kg/injection, schedule: Q01DX005 (ip), vehicle: saline with Tween-80
[14] = dose: 200.0 mg/kg/injection, schedule: Q01DX005 (ip), vehicle: saline with Tween-80
[15] = dose: 50.0 mg/kg/injection, schedule: Q01DX005 (ip), vehicle: saline
[16] = dose: 100.0 mg/kg/injection, schedule: Q01DX005 (ip), vehicle: saline
[17] = dose: 200.0 mg/kg/injection, schedule: Q01DX005 (ip), vehicle: saline
[18] = dose: 50.0 mg/kg/injection, schedule: Q01DX009 (ip), vehicle: Klucel (hydroxypropylcellulose) (HPC)
[19] = dose: 25.0 mg/kg/injection, schedule: Q01DX009 (ip), vehicle: saline with Tween-80
[20] = dose: 100.0 mg/kg/injection, schedule: Q01DX009 (ip), vehicle: saline with Tween-80
[21] = dose: 200.0 mg/kg/injection, schedule: Q01DX009 (ip), vehicle: saline with Tween-80

Measured: T/C

Nc1nc(N)c2cn[nH]c2n1
inactive: [1] 95 % of control | [2] 93 % of control | [3] 100 % of control | [4] 104 % of control

CCN(CC)CC(C)C1NS(=O)(=O)c2ccccc21 (stereo unspecified)
inactive: dose: 1.56 mg/kg/injection, schedule: Q01DX009 (ip), vehicle: saline 107 % of control | dose: 3.12 mg/kg/injection, schedule: Q01DX009 (ip), vehicle: saline 98 % of control | [1] 100 % of control | [3] 88 % of control | [5] 86 % of control | [4] 87 % of control

N#Cc1c2c(c(=S)n(-c3ccc(Cl)cc3)c1N)CCCC2
inactive: dose: 60.0 mg/kg/injection, schedule: Q01DX005 (ip), vehicle: Klucel + Tween-80 92 % of control | dose: 120.0 mg/kg/injection, schedule: Q01DX005 (ip), vehicle: Klucel + Tween-80 91 % of control | dose: 240.0 mg/kg/injection, schedule: Q01DX005 (ip), vehicle: Klucel + Tween-80 91 % of control

CN1CCC(C(=O)O)(c2ccccc2)CC1
inactive: dose: 9.4 mg/kg/injection, schedule: Q01DX009 (ip), vehicle: saline with Tween-80 100 % of control | dose: 18.8 mg/kg/injection, schedule: Q01DX009 (ip), vehicle: saline with Tween-80 98 % of control | dose: 37.5 mg/kg/injection, schedule: Q01DX009 (ip), vehicle: saline with Tween-80 97 % of control | dose: 75.0 mg/kg/injection, schedule: Q01DX009 (ip), vehicle: saline with Tween-80 111 % of control

CC1(C(Cl)(Cl)Cl)C=CC(=NO)C=C1 (stereo unspecified)
inactive: [6] 110 % of control | [7] 107 % of control | [8] 110 % of control

CCCC1CCCC[N+]1(C)[B-](F)(F)F (stereo unspecified)
inactive: dose: 3.12 mg/kg/injection, schedule: Q01DX005 (ip), vehicle: saline 100 % of control | dose: 6.25 mg/kg/injection, schedule: Q01DX005 (ip), vehicle: saline 99 % of control | dose: 12.5 mg/kg/injection, schedule: Q01DX005 (ip), vehicle: saline 103 % of control | [9] 100 % of control and 102 % of control

CC1CCC(C(C)C2C(O)CC3C4CCC5CC(N)CCC5(C)C4CCC32C)=NC1 (stereo unspecified) (tested in a mixture with another compound)
inactive: dose: 6.25 mg/kg/injection, schedule: Q01DX009 (ip), vehicle: Klucel (hydroxypropylcellulose) (HPC) 100 % of control | [10] 94 % of control | [11] 105 % of control

O=C1C=CC2(C=C1)N=C(c1ccccc1)C=C2c1ccccc1
inactive: [12] 101 % of control | [13] 97 % of control | [14] 93 % of control

COc1ccc(NS(=O)(=O)c2ccc(NC3OC(CO)C(O)C(O)C3NC(C)=O)cc2)nn1 (stereo unspecified)
inactive: [15] 104 % of control | [16] 100 % of control | [17] 104 % of control

O=C(N/N=C/c1ccccc1O)C(=O)Nc1ccc(F)cc1
inactive: [6] 94 % of control | [7] 92 % of control | [8] 87 % of control

COC(=O)C1=C(O)C(C(=O)OC)=C2C1=C(C(=O)OC)C(=O)C2C(=O)OC (stereo unspecified)
inactive: dose: 50.0 mg/kg/injection, schedule: Q01DX005 (ip), vehicle: water 97 % of control | dose: 100.0 mg/kg/injection, schedule: Q01DX005 (ip), vehicle: water 98 % of control | dose: 200.0 mg/kg/injection, schedule: Q01DX005 (ip), vehicle: water 95 % of control

CCC(C)C(NC(=O)C(N)CCCN=C(N)N)C(=O)O (stereo not drawn) (H-Arg-Ile-OH; configuration not given here)
inactive: [6] 98 % of control | [7] 100 % of control | [8] 101 % of control

CN(C)C(=S)S(=O)(=O)c1ccccc1
inactive: [10] 123 % of control | [11] 123 % of control | [18] 123 % of control

CC1(C)CCSC(/C=C/c2ccccc2)=N1
inactive: dose: 100.0 mg/kg/injection, schedule: Q01DX009 (ip), vehicle: other 109 % of control | dose: 200.0 mg/kg/injection, schedule: Q01DX009 (ip), vehicle: other 115 % of control | dose: 400.0 mg/kg/injection, schedule: Q01DX009 (ip), vehicle: other 108 % of control

CCOP(=O)(OCC)C1CCC(=O)O1 (stereo unspecified)
inactive: dose: 15.0 mg/kg/injection, schedule: Q01DX005 (ip), vehicle: saline 100 % of control | dose: 30.0 mg/kg/injection, schedule: Q01DX005 (ip), vehicle: saline 99 % of control | dose: 60.0 mg/kg/injection, schedule: Q01DX005 (ip), vehicle: saline 99 % of control and 94 % of control

Cc1nnc(Cc2ccc([N+](=O)[O-])cc2)c2n[nH]c(C)c12
inactive: dose: 25.0 mg/kg/injection, schedule: Q01DX001 (ip), vehicle: Klucel (hydroxypropylcellulose) (HPC) 104 % of control | dose: 50.0 mg/kg/injection, schedule: Q01DX001 (ip), vehicle: Klucel (hydroxypropylcellulose) (HPC) 102 % of control | dose: 100.0 mg/kg/injection, schedule: Q01DX001 (ip), vehicle: Klucel (hydroxypropylcellulose) (HPC) 109 % of control | dose: 100.0 mg/kg/injection, schedule: Q04DX002 (ip), vehicle: Klucel (hydroxypropylcellulose) (HPC) 90 % of control

Nc1nc(=O)n(C2CC(O)C(CO)O2)cc1Cl (stereo unspecified)
inactive: [9] 98 % of control | [15] 105 % of control | [16] 100 % of control | [17] 110 % of control | dose: 400.0 mg/kg/injection, schedule: Q01DX005 (ip), vehicle: saline 107 % of control

S=c1nc(-c2ccccc2)oc(=NC2CCCCC2)n1C1CCCCC1
inactive: [12] 98 % of control | [13] 101 % of control | [14] 109 % of control

CN(C)c1ccc(/C=C2\C=Cc3ccccc32)cc1Cl
inactive: [1] 101 % of control | [2] 87 % of control | [3] 94 % of control | [4] 94 % of control

O=C1C[N+]2(CCCCC2)c2ccc(Cl)cc2N1
inactive: [1] 104 % of control | dose: 6.25 mg/kg/injection, schedule: Q04DX003 (ip), vehicle: saline 100 % of control | [2] 109 % of control | dose: 12.5 mg/kg/injection, schedule: Q04DX003 (ip), vehicle: saline 104 % of control | [3] 104 % of control | dose: 25.0 mg/kg/injection, schedule: Q04DX003 (ip), vehicle: saline 100 % of control

CC(C)(C)c1cc(C=O)cc(C(C)(C)C)c1O
inactive: [19] 99 % of control | [5] 100 % of control | [20] 96 % of control | [21] 91 % of control

Cc1nc(Cl)c(C#N)nc1C
inactive: [5] 100 % of control | dose: 50.0 mg/kg/injection, schedule: Q04DX003 (ip), vehicle: saline with Tween-80 110 % of control | [20] 100 % of control | dose: 100.0 mg/kg/injection, schedule: Q04DX003 (ip), vehicle: saline with Tween-80 100 % of control | [21] 100 % of control | dose: 200.0 mg/kg/injection, schedule: Q04DX003 (ip), vehicle: saline with Tween-80 100 % of control

CCN(CC)CN1C(=O)C2C3C=CC(C2C1=O)C1C2C(=O)N(CN(CC)CC)C(=O)C2C31 (stereo unspecified)
inactive: [19] 103 % of control | [5] 102 % of control and 111 % of control | [20] 116 % of control and 117 % of control and 119 % of control | [21] 119 % of control | dose: 400.0 mg/kg/injection, schedule: Q01DX009 (ip), vehicle: saline with Tween-80 111 % of control

Cn1nc(CC#N)c2c(=N)n(N)cnc21
inactive: [11] 119 % of control | [18] 109 % of control | dose: 100.0 mg/kg/injection, schedule: Q01DX009 (ip), vehicle: Klucel (hydroxypropylcellulose) (HPC) 104 % of control | dose: 200.0 mg/kg/injection, schedule: Q01DX009 (ip), vehicle: Klucel (hydroxypropylcellulose) (HPC) 113 % of control

COc1ccc2c(c1)CC[C@@H]1[C@@H]2CC[C@]2(C)C(=O)/C(=C/C=C/N(C)C)C[C@@H]12
inactive: dose: 12.5 mg/kg/injection, schedule: Q01DX005 (ip), vehicle: saline with Tween-80 90 % of control | dose: 25.0 mg/kg/injection, schedule: Q01DX005 (ip), vehicle: saline with Tween-80 91 % of control | [12] 87 % of control and 89 % of control

CNC(=O)O/N=C(\CN=[N+]=[N-])C(C)(C)C
inactive: dose: 0.78 mg/kg/injection, schedule: Q01DX009 (ip), vehicle: saline with Tween-80 93 % of control
